Results on six compounds are retold here after patent publication EP4691482A1, “LONG-ACTING CALCITONIN ANALOG” (Chengdu Aoda Biotechnology Co., Ltd., priority 2023, dated 2024).

The target in this assay is T1, calcitonin receptors (CTR) (Homo sapiens, UniProt P30988).
T1 construct: expressed in transfected cells; host or cells: cAMP Hunter HEK293-CT-R Gs cell line (HEK293, stably transfected)
T1 sequence (P30988 25-474): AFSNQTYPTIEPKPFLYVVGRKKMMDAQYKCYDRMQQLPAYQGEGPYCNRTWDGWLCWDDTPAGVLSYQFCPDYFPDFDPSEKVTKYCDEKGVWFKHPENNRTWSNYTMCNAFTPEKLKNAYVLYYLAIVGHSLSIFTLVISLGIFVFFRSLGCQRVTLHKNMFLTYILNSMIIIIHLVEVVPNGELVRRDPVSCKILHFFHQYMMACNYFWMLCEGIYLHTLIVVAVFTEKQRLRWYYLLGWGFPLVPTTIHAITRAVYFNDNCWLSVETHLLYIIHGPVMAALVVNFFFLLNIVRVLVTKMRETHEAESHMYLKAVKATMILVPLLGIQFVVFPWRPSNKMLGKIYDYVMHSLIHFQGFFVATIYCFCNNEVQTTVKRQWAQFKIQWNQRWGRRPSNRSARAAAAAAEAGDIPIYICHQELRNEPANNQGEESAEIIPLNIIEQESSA
Put plainly: cAMP determination (HTRF, cAMP Dynamic 2 Kit) in cAMP Hunter HEK293-CT-R Gs cell line. Conditions: for EC50: HEK293 cell line stably expressing CT-R, intracellular cAMP, HTRF; for Relative Activity%: relative to Salmon Calcitonin = 100.0, HEK293 CT-R cAMP. It is filed as cell-based. An excerpt: Upon activation by a ligand, Gas-coupled GPCRs can upregulate intracellular cAMP level, and cAMP, as a second messenger, can mediate a series of cellular responses. The cAMP Hunter HEK293-CT-R Gs cell line, which overexpresses Gas-coupled calcitonin receptors (CTR), was used. The binding of calcitonin (or an analog thereof) to the overexpressed CTR upregulates intracellular cAMP level. The amount of intracellular cAMP produced after activation by the calcitonin (or an analog thereof) was detected using a cAMP Dynamic 2 Kit to evaluate the biological activity of the calcitonin (or an analog thereof). HEK293 cell line stably expressing CT-R was used. Stably transfected cells were stimulated with various concentrations of agonists. The time-resolved fluorescence resonance energy signal from the cells after stimulation with different doses was measured using HTRF technology, from which the biological activity of the agonist was subsequently calculated.
On the technique in general: TR-FRET usually uses a lanthanide donor and a delayed reading to cut background.

Usually EC50 stands for the concentration that produces a half-maximal response.

Turning to `CC(C)C[C@H](NC(=O)[C@H](CCCCN)NC(=O)CNC(=O)[C@H](CC(C)C)NC(=O)[C@@H](NC(=O)[C@@H]1CSSC[C@H](N)C(=O)N[C@@H](CO)C(=O)N[C@@H](CC(N)=O)C(=O)N[C@@H](CC(C)C)C(=O)N[C@@H](CO)C(=O)N[C@@H]([C@@H](C)O)C(=O)N1)C(C)C)C(=O)N[C@@H](CO)C(=O)N[C@@H](CCC(N)=O)C(=O)N[C@@H](CCC(=O)O)C(=O)N[C@@H](CC(C)C)C(=O)N[C@@H](Cc1c[nH]cn1)C(=O)N[C@@H](CCCCNC(=O)COCCOCCNC(=O)COCCOCCNC(=O)CC[C@H](NC(=O)CCCCCCCCCCCCCCCCCCC(=O)O)C(=O)O)C(=O)N[C@@H](CC(C)C)C(=O)N[C@@H](CCC(N)=O)C(=O)N[C@H](C(=O)N[C@@H](Cc1ccc(O)cc1)C(=O)N1CCC[C@H]1C(=O)N[C@@H](CCCNC(=N)N)C(=O)N[C@H](C(=O)N[C@@H](CC(N)=O)C(=O)N[C@H](C(=O)NCC(=O)N[C@@H](CO)C(=O)NCC(=O)N[C@H](C(=O)N1CCC[C@H]1C(N)=O)[C@@H](C)O)[C@@H](C)O)[C@@H](C)O)[C@@H](C)O` [Compound 16, Cys-Ser-Asn-Leu-Ser-Thr-Cys-Val-Leu-Gly-Lys-Leu-Ser-Gln-Glu-Leu-His-Lys(AEEA-AEEA-γGlu-eicosanedioic acid)-Leu-Gln-Thr-Tyr-Pro-Arg-Thr-Asn-Thr-Gly-Ser-Gly-Thr-Pro-NH2], the EC50 is 2.9 pM.
As to `CC(C)C[C@H](NC(=O)[C@H](CCCCN)NC(=O)CNC(=O)[C@H](CC(C)C)NC(=O)[C@@H](NC(=O)[C@@H]1CSSC[C@H](N)C(=O)N[C@@H](CO)C(=O)N[C@@H](CC(N)=O)C(=O)N[C@@H](CC(C)C)C(=O)N[C@@H](CO)C(=O)N[C@@H]([C@@H](C)O)C(=O)N1)C(C)C)C(=O)N[C@@H](CO)C(=O)N[C@@H](CCC(N)=O)C(=O)N[C@@H](CCC(=O)O)C(=O)N[C@@H](CC(C)C)C(=O)N[C@@H](Cc1c[nH]cn1)C(=O)N[C@@H](CCCCNC(=O)COCCOCCNC(=O)COCCOCCNC(=O)COCCOCCNC(=O)CC[C@H](NC(=O)CCCCCCCCCCCCCCCCCCC(=O)O)C(=O)O)C(=O)N[C@@H](CC(C)C)C(=O)N[C@@H](CCC(N)=O)C(=O)N[C@H](C(=O)N[C@@H](Cc1ccc(O)cc1)C(=O)N1CCC[C@H]1C(=O)N[C@@H](CCCNC(=N)N)C(=O)N[C@H](C(=O)N[C@@H](CC(N)=O)C(=O)N[C@H](C(=O)NCC(=O)N[C@@H](CO)C(=O)NCC(=O)N[C@H](C(=O)N1CCC[C@H]1C(N)=O)[C@@H](C)O)[C@@H](C)O)[C@@H](C)O)[C@@H](C)O` [Compound 17, Cys-Ser-Asn-Leu-Ser-Thr-Cys-Val-Leu-Gly-Lys-Leu-Ser-Gln-Glu-Leu-His-Lys(AEEA-AEEA-AEEA-γGlu-eicosanedioic acid)-Leu-Gln-Thr-T yr-Pro-Arg-Thr-Asn-Thr-Gly-Ser-Gly-Thr-Pro-NH2], the EC50 was determined as 3.1 pM.
As for `CC(C)C[C@H](NC(=O)[C@H](CCCCN)NC(=O)CNC(=O)[C@H](CC(C)C)NC(=O)[C@@H](NC(=O)[C@@H]1CSSC[C@H](N)C(=O)N[C@@H](CO)C(=O)N[C@@H](CC(N)=O)C(=O)N[C@@H](CC(C)C)C(=O)N[C@@H](CO)C(=O)N[C@@H]([C@@H](C)O)C(=O)N1)C(C)C)C(=O)N[C@@H](CO)C(=O)N[C@@H](CCC(N)=O)C(=O)N[C@@H](CCC(=O)O)C(=O)N[C@@H](CC(C)C)C(=O)N[C@@H](Cc1c[nH]cn1)C(=O)N[C@@H](CCCCNC(=O)COCCOCCOCCNC(=O)CC[C@H](NC(=O)CCCCCCCCCCCCCCCCC(=O)O)C(=O)O)C(=O)N[C@@H](CC(C)C)C(=O)N[C@@H](CCC(N)=O)C(=O)N[C@H](C(=O)N[C@@H](Cc1ccc(O)cc1)C(=O)N1CCC[C@H]1C(=O)N[C@@H](CCCNC(=N)N)C(=O)N[C@H](C(=O)N[C@@H](CC(N)=O)C(=O)N[C@H](C(=O)NCC(=O)N[C@@H](CO)C(=O)NCC(=O)N[C@H](C(=O)N1CCC[C@H]1C(N)=O)[C@@H](C)O)[C@@H](C)O)[C@@H](C)O)[C@@H](C)O` [Compound 18, Cys-Ser-Asn-Leu-Ser-Thr-Cys-Val-Leu-Gly-Lys-Leu-Ser-Gln-Glu-Leu-His-Lys(PEG3CH2CO-γGlu-octadecanedioic acid)-Leu-Gln-Thr-Tyr-Pr o-Arg-Thr-Asn-Thr-Gly-Ser-Gly-Thr-Pro-NH2], the “Relative Activity%” value is recorded as 271.4%.
With `CC(C)C[C@H](NC(=O)[C@H](CCCCN)NC(=O)CNC(=O)[C@H](CC(C)C)NC(=O)[C@@H](NC(=O)[C@@H]1CSSC[C@H](N)C(=O)N[C@@H](CO)C(=O)N[C@@H](CC(N)=O)C(=O)N[C@@H](CC(C)C)C(=O)N[C@@H](CO)C(=O)N[C@@H]([C@@H](C)O)C(=O)N1)C(C)C)C(=O)N[C@@H](CO)C(=O)N[C@@H](CCC(N)=O)C(=O)N[C@@H](CCC(=O)O)C(=O)N[C@@H](CC(C)C)C(=O)N[C@@H](Cc1c[nH]cn1)C(=O)N[C@@H](CCCCNC(=O)COCCOCCNC(=O)COCCOCCNC(=O)CC[C@H](NC(=O)CCCCCCCCCCCCCCCCC(=O)O)C(=O)O)C(=O)N[C@@H](CC(C)C)C(=O)N[C@@H](CCC(N)=O)C(=O)N[C@H](C(=O)N[C@@H](Cc1ccc(O)cc1)C(=O)N1CCC[C@H]1C(=O)N[C@@H](CCCNC(=N)N)C(=O)N[C@H](C(=O)N[C@@H](CC(N)=O)C(=O)N[C@H](C(=O)NCC(=O)N[C@@H](CO)C(=O)NCC(=O)N[C@H](C(=O)N1CCC[C@H]1C(N)=O)[C@@H](C)O)[C@@H](C)O)[C@@H](C)O)[C@@H](C)O` [Compound 19, Cys-Ser-Asn-Leu-Ser-Thr-Cys-Val-Leu-Gly-Lys-Leu-Ser-Gln-Glu-Leu-His-Lys(AEEA-AEEA-γGlu-octadecanedioic acid)-Leu-Gln-Thr-Tyr-P ro-Arg-Thr-Asn-Thr-Gly-Ser-Gly-Thr-Pro-NH2], the 50% effective concentration (EC50) worked out at 3.7 pM.
Turning to `CC(C)C[C@H](NC(=O)[C@H](CCCCN)NC(=O)CNC(=O)[C@H](CC(C)C)NC(=O)[C@@H](NC(=O)[C@@H]1CSSC[C@H](N)C(=O)N[C@@H](CO)C(=O)N[C@@H](CC(N)=O)C(=O)N[C@@H](CC(C)C)C(=O)N[C@@H](CO)C(=O)N[C@@H]([C@@H](C)O)C(=O)N1)C(C)C)C(=O)N[C@@H](CO)C(=O)N[C@@H](CCC(N)=O)C(=O)N[C@@H](CCC(=O)O)C(=O)N[C@@H](CC(C)C)C(=O)N[C@@H](Cc1c[nH]cn1)C(=O)N[C@@H](CCCCNC(=O)COCCOCCOCCNC(=O)CC[C@H](NC(=O)CCCCCCCCCCCCCCCCCCCCC(=O)O)C(=O)O)C(=O)N[C@@H](CC(C)C)C(=O)N[C@@H](CCC(N)=O)C(=O)N[C@H](C(=O)N[C@@H](Cc1ccc(O)cc1)C(=O)N1CCC[C@H]1C(=O)N[C@@H](CCCNC(=N)N)C(=O)N[C@H](C(=O)N[C@@H](CC(N)=O)C(=O)N[C@H](C(=O)NCC(=O)N[C@@H](CO)C(=O)NCC(=O)N[C@H](C(=O)N1CCC[C@H]1C(N)=O)[C@@H](C)O)[C@@H](C)O)[C@@H](C)O)[C@@H](C)O` [Compound 20, Cys-Ser-Asn-Leu-Ser-Thr-Cys-Val-Leu-Gly-Lys-Leu-Ser-Gln-Glu-Leu-His-Lys(PEG3CH2CO-γGlu-docosanedioic acid)-Leu-Gln-Thr-Tyr-Pro-Arg-Thr-Asn-Thr-Gly-Ser-Gly-Thr-Pro-NH2], the “Relative Activity%” value stood at 296.9%.
For `CC(C)C[C@H](NC(=O)[C@H](CCCCN)NC(=O)CNC(=O)[C@H](CC(C)C)NC(=O)[C@@H](NC(=O)[C@@H]1CSSC[C@H](N)C(=O)N[C@@H](CO)C(=O)N[C@@H](CC(N)=O)C(=O)N[C@@H](CC(C)C)C(=O)N[C@@H](CO)C(=O)N[C@@H]([C@@H](C)O)C(=O)N1)C(C)C)C(=O)N[C@@H](CO)C(=O)N[C@@H](CCC(N)=O)C(=O)N[C@@H](CCC(=O)O)C(=O)N[C@@H](CC(C)C)C(=O)N[C@@H](Cc1c[nH]cn1)C(=O)N[C@@H](CCCCNC(=O)COCCOCCNC(=O)COCCOCCNC(=O)CC[C@H](NC(=O)CCCCCCCCCCCCCCCCCCCCC(=O)O)C(=O)O)C(=O)N[C@@H](CC(C)C)C(=O)N[C@@H](CCC(N)=O)C(=O)N[C@H](C(=O)N[C@@H](Cc1ccc(O)cc1)C(=O)N1CCC[C@H]1C(=O)N[C@@H](CCCNC(=N)N)C(=O)N[C@H](C(=O)N[C@@H](CC(N)=O)C(=O)N[C@H](C(=O)NCC(=O)N[C@@H](CO)C(=O)NCC(=O)N[C@H](C(=O)N1CCC[C@H]1C(N)=O)[C@@H](C)O)[C@@H](C)O)[C@@H](C)O)[C@@H](C)O` [Compound 21, Cys-Ser-Asn-Leu-Ser-Thr-Cys-Val-Leu-Gly-Lys-Leu-Ser-Gln-Glu-Leu-His-Lys(AEEA-AEEA-γGlu-docosanedioic acid)-Leu-Gln-Thr-Tyr-Pro -Arg-Thr-Asn-Thr-Gly-Ser-Gly-Thr-Pro-NH2], the 50% effective concentration (EC50) is 3.5 pM.
